Data on 24 compounds can be found in patent US12630498B2 (Genzyme Corporation, priority 2019, dated 2026).

As usually defined, the Emax is the maximal effect, on the per cent scale that the assay sets. The term EC50 denotes the concentration giving half of the maximal effect. Higher therefore signals lower potency in that assay.

The target of the assay is T1, human Cystic Fibrosis Transmembrane Conductance Regulator (CFTR) harboring the ΔF508 mutation (Homo sapiens, UniProt P13569, DEL508-508).
T1 construct: expressed in transfected cells; host or cells: H441 carcinoma line (G418-selected)
T1 sequence (P13569 with tags, fused parts or gaps DEL508-508): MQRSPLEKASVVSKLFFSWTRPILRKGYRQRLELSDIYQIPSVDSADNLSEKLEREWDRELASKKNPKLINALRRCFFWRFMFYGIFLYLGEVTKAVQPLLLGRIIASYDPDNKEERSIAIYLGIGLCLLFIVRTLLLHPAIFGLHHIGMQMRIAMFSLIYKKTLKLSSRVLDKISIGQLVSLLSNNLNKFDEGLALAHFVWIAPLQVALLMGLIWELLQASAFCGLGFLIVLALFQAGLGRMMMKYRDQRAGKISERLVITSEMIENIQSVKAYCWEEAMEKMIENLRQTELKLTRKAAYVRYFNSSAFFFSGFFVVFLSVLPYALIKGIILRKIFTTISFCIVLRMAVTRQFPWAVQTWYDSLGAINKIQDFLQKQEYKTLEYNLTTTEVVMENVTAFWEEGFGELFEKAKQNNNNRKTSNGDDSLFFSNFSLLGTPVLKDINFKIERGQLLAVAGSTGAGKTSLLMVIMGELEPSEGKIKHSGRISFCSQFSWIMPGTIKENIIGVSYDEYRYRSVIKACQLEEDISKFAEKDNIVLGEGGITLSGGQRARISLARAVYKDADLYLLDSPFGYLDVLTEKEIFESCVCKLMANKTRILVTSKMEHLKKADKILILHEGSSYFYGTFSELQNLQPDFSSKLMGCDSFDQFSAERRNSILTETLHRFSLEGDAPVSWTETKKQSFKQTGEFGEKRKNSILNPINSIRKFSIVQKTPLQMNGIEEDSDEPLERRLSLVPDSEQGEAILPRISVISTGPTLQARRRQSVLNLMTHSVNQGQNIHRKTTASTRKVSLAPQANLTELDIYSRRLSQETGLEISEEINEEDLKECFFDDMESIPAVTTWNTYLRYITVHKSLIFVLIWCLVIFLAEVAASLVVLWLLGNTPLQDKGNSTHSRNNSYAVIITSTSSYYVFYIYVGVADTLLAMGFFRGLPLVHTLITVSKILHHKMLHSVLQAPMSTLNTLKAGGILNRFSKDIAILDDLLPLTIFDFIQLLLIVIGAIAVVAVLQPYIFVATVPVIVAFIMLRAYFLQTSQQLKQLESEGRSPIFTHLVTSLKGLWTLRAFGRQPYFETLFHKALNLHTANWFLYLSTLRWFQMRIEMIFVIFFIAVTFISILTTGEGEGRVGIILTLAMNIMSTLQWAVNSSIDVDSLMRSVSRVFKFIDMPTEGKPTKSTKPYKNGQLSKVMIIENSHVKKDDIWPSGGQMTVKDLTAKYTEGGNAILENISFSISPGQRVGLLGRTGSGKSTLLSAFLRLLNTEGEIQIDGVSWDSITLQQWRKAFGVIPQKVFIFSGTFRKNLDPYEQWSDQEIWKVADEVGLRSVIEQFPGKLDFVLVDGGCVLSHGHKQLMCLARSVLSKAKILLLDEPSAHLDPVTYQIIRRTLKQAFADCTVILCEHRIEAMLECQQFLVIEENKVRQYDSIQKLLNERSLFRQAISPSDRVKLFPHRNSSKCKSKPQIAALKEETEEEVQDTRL
Put plainly: H441 cell ΔF508-CFTR-HRP cell surface assay (Emax and EC50). The format is cell-based. The note with it: for Emax: NCI-H441, NA = Not active. The source says: Example 315: H441 Cell Emax and EC50 Two cell lines were used, the H441 carcinoma line and the CFHBE41o- (41o-) human bronchial epithelial line. Both cell lines expressed human Cystic Fibrosis Transmembrane Conductance Regulator (CFTR) harboring the ΔF508 mutation and with an in-frame fusion in CFTR extracellular loop 4 of Horse Radish Peroxidase (HRP) under control of the CMV promoter. In the presence of the HRP tag, ΔF508-CFTR transported to the cell surface was detectable upon addition of an HRP substrate (Luminata Forte). Both cell types were cultivated at 37° C. with CO2. […] For both cell types, the medium was changed every other day unless the culture was at low % confluence. Cells were used for the assays at 75% confluence. To a polypropylene (PP) 384-well plate, 15 pls DMSO was added to all wells in columns 1-22 and 24 (low Control). 15 μls of 260 μM VX809 (Lumacaftor), Selleckchem […], was added to column 23 wells (high Control). 15 pls of 10 mM test compound or VX809 (control) were added to wells of row A. Serial dilutions of Row A compound were performed 2×15 pls in rows A through 0 (15-point). A PP, 384-well plate containing the appropriate cell culture medium was prepared for each assay plate with 100 pls per well. For the doxycycline-induced 41o-cells, doxycycline for both the assay plate and the medium dilution plate was added at 0.0005 mg/ml to the medium. Both cell lines were plated for the assay at 30 pls per 384-well at 3.4×10 e^5 cells per ml ( 10K cells/well). H441 cells were plated on opaque, white, Corning plate 3704. 41o-cells were plated on collagen-coated opaque, white, Corning plate 356665. For 41o-cells, doxycycline was added to the medium. Using FX (Beckman) protocol, 10 pls diluted compound or medium was added per well to the Assay Plate as: 2 pls DMSO Dilution plate well was diluted in 100 pls of the Medium Dilution Plate well, mixed, and 10 pls was transferred to the Assay Plate. The final assay dilution series was 24.5, 12.3, 6.1, 3.1, 1.5, 0.8, 0.4, 0.2, 0.1, 0.05, 0.02, 0.01, 0.006, 0.003, 0.001 and 0 μM. The 41o-assay plates were incubated at 37° C. w/CO2, the H441 assay plates were incubated at 27° C. w/CO2, each overnight for two nights. After being brought to room temperature, the assay plate liquid was removed. 30 uls of Luminata Forte (Millipore ELLUF0100) was added per well and incubated at room temperature for 10 min. The plates were then read on a Topcount, protocol LumiMatti (CPS, luminescence). The data was analyzed for % of maximum, maximum VX809 signal, and EC50 using Pearl and SPEED tools.

Structures are written as SMILES.

With `CC(C)(S[C@@H]1C[C@@H]2CC[C@H]1C2)[C@H](NC(=O)c1ccc2ccccc2c1OCc1ccc(S(C)(=O)=O)cc1)C(=O)O` [Example 176, (R)-3-(((1S,2R,4R)-bicyclo[2.2.1]heptan-2-yl)thio)-3-methyl-2-(1-((4-(methylsulfonyl)benzyl)oxy)-2-naphthamido)butanoic Acid], the Emax came to 38.4%.

In turn, `O=C(N[C@@H](Cc1ccccc1)C(=O)O)c1ccc2ccccc2c1OCc1ccc2c(c1)OCO2` [Example 121, (1-(benzo[d][1,3]dioxol-5-ylmethoxy)-2-naphthoyl)-L-phenylalanine] gave an EC50 of 0.2 µM and an Emax of 3.7%.

`O=C(N[C@H](C(=O)O)C12CC(C(F)(F)F)(C1)C2)c1ccc2ccccc2c1OCc1ccc(S(F)(F)(F)(F)F)cc1` [Example 24, (S)-2-(1-((4-(pentafluoro-λ^6-sulfanyl)benzyl)oxy)-2-naphthamido)-2-(3-(trifluoromethyl)bicyclo[1.1.1]pentan-1-yl)acetic Acid] displayed an EC50 of 1.1 µM and an Emax of 66.1%.

Compound `COC(C)(C)[C@H](NC(=O)c1ccc2cc(F)ccc2c1OCc1ccc(SC(F)(F)F)cc1)C(=O)O` [Example 118, (S)-2-(6-fluoro-1-((4-((trifluoromethyl)thio)benzyl)oxy)-2-naphthamido)-3-methoxy-3-methylbutanoic Acid] displayed an EC50 of 2.8 µM and a maximum response (Emax) of 71%.

For the compound `CC(C)(C)[C@H](NC(=O)c1ccc2ccccc2c1OCC#CC1CC1)C(=O)O` [Example 270, (2S)-2-[[1-(3-cyclopropylprop-2-ynoxy)naphthalene-2-carbonyl]amino]-3,3-dimethyl-butanoic Acid], the EC50 is 12.2 µM and the maximum response (Emax) worked out at 166%.

`C[C@@H](OCc1ccccc1)C(NC(=O)c1ccc2ccccc2c1OCc1ccc(C(F)(F)F)cc1)C(=O)O` (stereo partly drawn) [Example 144, (3R)-3-(benzyloxy)-2-(1-((4-(trifluoromethyl)benzyl)oxy)-2-naphthamido)butanoic Acid] showed a concentration giving a half-maximal response (EC50) of 4.5 µM and a maximal response (Emax) of 140%.

With `Cc1ccc2ccc(C(=O)N[C@H](C(=O)O)C3(C)CC3)c(OCc3ccc(C(F)(F)F)cc3)c2c1` [Example 229, (2S)-2-(1-methylcyclopropyl)-2-[[7-methyl-1-[[4-(trifluoromethyl)phenyl]methoxy]naphthalene-2-carbonyl]amino]acetic Acid], the EC50 came out at 1.8 µM and the Emax stood at 177%.

`CC(C)(C)[C@H](NC(=O)c1ccc2ccccc2c1OCc1ccncc1)C(=O)O` [Example 232, (2S)-3,3-dimethyl-2-[[1-(4-pyridylmethoxy)naphthalene-2-carbonyl]amino]butanoic Acid]: the midpoint of the response, the EC50, lay at 3.1 µM and the Emax stood at 8.5%.

For the compound `CC(C)(C)[C@H](NC(=O)c1ccc2ccccc2c1OCc1ccc(OC(F)(F)F)cc1)C(=O)O` [Example 65, (S)-3,3-dimethyl-2-(1-((4-(trifluoromethoxy)benzyl)oxy)-2-naphthamido)butanoic Acid], the EC50 turned out to be 4.4 µM and the Emax stood at 8.7%.

`CN(C)c1ccc2c(OCc3ccc(C(F)(F)F)cc3)c(C(=O)N[C@H](C(=O)O)C(C)(C)C)ccc2c1` [compound 85, (S)-2-(6-(dimethylamino)-1-((4-(trifluoromethyl)benzyl)oxy)-2-naphthamido)-3,3-dimethylbutanoic Acid] had a 50% effective concentration (EC50) of 1.6 µM and a maximal response (Emax) of 53%.

`N#Cc1ccc(COc2c(C(=O)N[C@@H](Cc3ccccc3)C(=O)O)ccc3ccccc23)cc1` [Example 125, (1-((4-cyanobenzyl)oxy)-2-naphthoyl)-L-phenylalanine] gave an EC50 of 20.3 µM and an Emax of 31.5%.

`O=C(NC(C(=O)O)C(C(F)(F)F)C(F)(F)F)c1ccc2ccccc2c1OCC1CCCCC1` (stereo not shown) [Example 183, 2-(1-(cyclohexylmethoxy)-2-naphthamido)-4,4,4-trifluoro-3-(trifluoromethyl)butanoic Acid] returned an EC50 of 3.2 µM and an Emax of 63.9%.

As for `CC(C)(C)C[C@H](NC(=O)c1ccc2cc(F)ccc2c1OCC1CCC(F)(F)CC1)C(=O)O` [Example 109, (S)-2-(1-((4,4-difluorocyclohexyl)methoxy)-6-fluoro-2-naphthamido)-4,4-dimethylpentanoic Acid], the EC50 was determined as 14.2 µM and the Emax was found to be 52.7%.

`O=C(N[C@H](C(=O)O)C(c1ccccc1)c1ccccc1)c1ccc2ccccc2c1OCc1ccc(Cl)c(Cl)c1` [Example 207, (S)-2-(1-((3,4-dichlorobenzyl)oxy)-2-naphthamido)-3,3-diphenylpropanoic Acid] came in with an EC50 of 20.4 µM and a maximal response (Emax) of 40.4%.

`CC(C)(C)[C@H](NC(=O)c1ccc2cc(F)ccc2c1OCC1CCC(F)(F)CC1)C(=O)O` [Example 76, (S)-2-(1-((4,4-difluorocyclohexyl)methoxy)-6-fluoro-2-naphthamido)-3,3-dimethylbutanoic Acid]: the EC50 was 7.1 µM and the Emax was found to be 58.3%.

`CC(C)(C)C[C@H](NC(=O)c1ccc2ccccc2c1OCc1ccc(S(=O)(=O)C(F)(F)F)cc1)C(=O)O` [Example 157, (S)-4,4-dimethyl-2-(1-((4-((trifluoromethyl)sulfonyl)benzyl)oxy)-2-naphthamido)pentanoic Acid] returned an EC50 of 7.1 µM and an Emax of 55%.

In the case of `COc1ccc2c(OCc3ccc(SC(F)(F)F)cc3)c(C(=O)N[C@H](C(=O)O)C3CCCC3)ccc2c1` [Example 162, (S)-2-cyclopentyl-2-(6-methoxy-1-((4-((trifluoromethyl)thio)benzyl)oxy)-2-naphthamido)acetic Acid], the EC50 stood at 1.6 µM and the Emax came to 26%.

In the case of `O=C(NC(C(=O)O)C(C(F)(F)F)C(F)(F)F)c1ccc2ccccc2c1OCc1ccc(C(F)(F)F)cc1` (stereo not shown) [Example 181, 4,4,4-trifluoro-3-(trifluoromethyl)-2-(1-((4-(trifluoromethyl)benzyl)oxy)-2-naphthamido)butanoic Acid], a half-maximal response (EC50) required 13.7 µM and the maximal effect (Emax) was 93.2%.

As to `NC12CCC(C(NC(=O)c3ccc4cc(F)ccc4c3OCc3ccc(OC(F)(F)F)cc3)C(=O)O)(CC1)CC2` (stereo not shown) [Example 184, 2-(4-aminobicyclo[2.2.2]octan-1-yl)-2-(6-fluoro-1-((4-(trifluoromethoxy)benzyl)oxy)-2-naphthamido)acetic Acid], the maximal effect (Emax) was 11.7%.

The compound `CC1([C@H](NC(=O)c2ccc3cc(F)ccc3c2OCc2ccc(OC(F)(F)F)cc2)C(=O)O)CC1` [Example 30, (S)-2-(6-fluoro-1-((4-(trifluoromethoxy)benzyl)oxy)-2-naphthamido)-2-(1-methylcyclopropyl)acetic Acid] yielded an EC50 of 2 µM and an Emax of 57.5%.

Take `CC(C)(c1ccccc1)[C@H](NC(=O)c1ccc2cc(F)ccc2c1OCC1CCC(F)(F)CC1)C(=O)O` [Example 7, (S)-2-(1-((4,4-difluorocyclohexyl)methoxy)-6-fluoro-2-naphthamido)-3-methyl-3-phenylbutanoic Acid]: the midpoint of the response, the EC50, lay at 2.4 µM and the Emax came out at 51.9%.

`C=C(C)C1CC=C(COc2c(C(=O)N[C@H](C(=O)O)C(C)(C)C)ccc3ccccc23)CC1` (stereo partly drawn) [Example 49, (2S)-3,3-dimethyl-2-(1-((4-(prop-1-en-2-yl)cyclohex-1-en-1-yl)methoxy)-2-naphthamido)butanoic Acid] displayed an EC50 of 1.5 µM and an Emax of 33.5%.

`CC(C)(C)[C@H](NC(=O)c1ccc2ccccc2c1OCc1ccc2c(c1)OCO2)C(=O)O` [Example 79, (S)-2-(1-(benzo[d][1,3]dioxol-5-ylmethoxy)-2-naphthamido)-3,3-dimethylbutanoic Acid] returned an EC50 of 2.5 µM and an Emax of 9.1%.

On to `CC1(C(NC(=O)c2ccc3ccccc3c2OC[C@H]2CC[C@@H](C(F)(F)F)CC2)C(=O)O)CCCCC1` (stereo partly shown) [Example 39, 2-(1-methylcyclohexyl)-2-(1-(((1s,4s)-4-(trifluoromethyl)cyclohexyl)methoxy)-2-naphthamido)acetic Acid], for which the EC50 is 15.4 µM and the Emax amounted to 60.7%.
